The test has as its target T1, human histamine H3 receptor (Homo sapiens, UniProt Q9Y5N1).
T1 construct: One microgram of supercoiled H3 receptor cDNA was added to the cells and mixed; expressed in transfected cells; membranes prepared from cell pellets
Nature of the test: {3H}-N-methylhistamine binding. The procedure:
Transfection of Cells with Human Histamine Receptor
A 10 cm tissue culture dish with a confluent monolayer of SK-N-MC cells was split two days prior to transfection. Using sterile technique the media was removed and the cells were detached from the dish by the addition of trypsin. One fifth of the cells were then placed onto a new 10 cm dish. Cells were grown in a 37° C. incubator with 5% CO2 in Minimal Essential Media Eagle with 10%. Fetal Bovine Serum. After two days cells were approximately 80% confluent. These were removed from the dish with trypsin and pelleted in a clinical centrifuge. The pellet was then re-suspended in 400 μL complete media and transferred to an electroporation cuvette with a 0.4 cm gap between the electrodes. One microgram of supercoiled H3 receptor cDNA was added to the cells and mixed. The voltage for the electroporation was set at 0.25 kV, the capacitance was set at 960 μF. After electroporation the cells were diluted into 10 mL complete media and plated onto four 10 cm dishes. Because of the variability in the efficiency of electroporation, four different concentrations of cells were plated. The ratios used were; 1:20, 1:10, 1:5, with the remainder of the cells being added to the fourth dish. […] After 10 days dishes were analyzed for surviving colonies of cells. Dishes with well-isolated colonies were used. Cells from individual colonies were isolated and tested. SK-N-MC cells were used because they give efficient coupling for inhibition of adenylate cyclase. The clones that gave the most robust inhibition of adenylate cyclase in response to histamine were used for further study.
{^3H}-N-methylhistamine Binding
Cell pellets from histamine H3 receptor-expressing SK-N-MC cells were homogenized in 20 mM TrisHCl/0.5 mM EDTA. Supernatants from an 800 g spin were collected, recentrifuged at 30,000 g for 30 min. Pellets were re-homogenized in 50 mM Tris/5 mM EDTA (pH 7.4). […] Filters were dried, added to 4 mL scintillation cocktail and then counted on a liquid scintillation counter. Non-specific binding was defined with 10 μM histamine.

Each structure is given as a SMILES string. Counter-ions that a name gives are not always drawn. Like-named read-outs stand apart in the source and are kept apart here.

T1 sequence (Q9Y5N1 whole entry): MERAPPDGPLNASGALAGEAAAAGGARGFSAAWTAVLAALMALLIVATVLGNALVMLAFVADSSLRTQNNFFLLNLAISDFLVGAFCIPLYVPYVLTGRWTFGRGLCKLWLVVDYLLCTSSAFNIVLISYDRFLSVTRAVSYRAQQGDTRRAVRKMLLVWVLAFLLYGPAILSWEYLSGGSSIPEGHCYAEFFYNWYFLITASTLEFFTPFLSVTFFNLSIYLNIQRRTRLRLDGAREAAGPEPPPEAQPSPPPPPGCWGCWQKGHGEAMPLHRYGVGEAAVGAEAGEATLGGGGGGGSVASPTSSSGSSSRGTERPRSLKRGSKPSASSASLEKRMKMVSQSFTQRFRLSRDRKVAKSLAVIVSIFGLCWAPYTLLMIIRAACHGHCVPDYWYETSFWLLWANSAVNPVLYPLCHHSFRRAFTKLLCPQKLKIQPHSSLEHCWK

On to `CCC(CC)N1CCN(C(=O)c2ccc(CNCc3ccccc3)cc2)CC1` [Example 20, {4-(Benzylamino-methyl)-phenyl}-{4-(1-ethyl-propyl)-piperazin-1-yl}-methanone], for which the inhibition constant (Ki) (in general, a measure of affinity in units of concentration, obtained from inhibition or displacement) stood at 0.002 µM.
In the case of `CCC(CC)N1CCN(C(=O)c2ccc(CN3CCCCCC3)cc2)CC1` [Example 21, (4-Azepan-1-ylmethyl-phenyl)-{4-(1-ethyl-propyl)-piperazin-1-yl}-methanone], the Ki stood at 0.002 µM.
The same measure, in the same setting: for `CCC(CC)N1CCN(C(=O)c2ccc(CN3CCC4CCCCC4C3)cc2)CC1` (stereo not drawn) [Example 22, {4-(1-Ethyl-propyl)-piperazin-1-yl}-{4-(decahydro-isoguinolin-2-ylmethyl)-phenyl}-methanone] the value was 0.002 µM; for `CCC(C)N1CCN(C(=O)c2ccc(CN3CCCCCC3)cc2)CC1` (stereo not drawn) [Example 23, (4-Azepan-1-ylmethyl-phenyl)-(4-sec-butyl-piperazin-1-yl)-methanone], 0.0009 µM; for `CCC(C)N1CCN(C(=O)c2ccc(CN(C)C)cc2)CC1` (stereo not drawn) [Example 24, (4-sec-Butyl-piperazin-1-yl)-(4-dimethylaminomethyl-phenyl)-methanone], 0.0015 µM.
Still for that read-out and setting: for `CCC(C)N1CCN(C(=O)c2ccc(CN3CCCC3)cc2)CC1` (stereo not drawn) [Example 25, (4-sec-Butyl-piperazin-1-yl)-(4-pyrrolidin-1-ylmethyl-phenyl)-methanone] the value was 0.001 µM; for `CCC(CC)N1CCN(C(=O)c2ccc(CN3CCCC3)cc2)CC1` [Example 26, {4-(1-Ethyl-propyl)-piperazin-1-yl}-(4-pyrrolidin-1-ylmethyl-phenyl)-methanone], 0.0009 µM.
For `CCC(CC)N1CCN(C(=O)c2ccc(CN3CCCCC3)cc2)CC1` [Example 27, {4-(1-Ethyl-propyl)-piperazin-1-yl}-(4-piperidin-1-ylmethyl-phenyl)-methanone], affinity was put at a Ki of 0.0004 µM.
As to `CCC(C)N1CCN(C(=O)c2ccc(CN3CCCCC3)cc2)CC1` (stereo not drawn) [Example 28, (4-sec-Butyl-piperazin-1-yl)-(4-piperidin-1-ylmethyl-phenyl)-methanone], the affinity, expressed as Ki, was 0.0009 µM. This Ki lies about 2.2-fold higher than the previous one.
On to `CCC(C)N1CCN(C(=O)c2ccc(CNc3ccccc3)cc2)CC1` (stereo not drawn) [Example 29, (4-sec-Butyl-piperazin-1-yl)-(4-phenylaminomethyl-phenyl)-methanone], for which the affinity corresponds to a Ki of 0.038 µM.
Still for that read-out and setting: for `CCCCN1CCN(C(=O)c2ccc(CN(C)C)cc2)CC1` [Example 30, (4-Butyl-piperazin-1-yl)-(4-dimethylaminomethyl-phenyl)-methanone] the value was 0.018 µM; for `CCCCN1CCN(C(=O)c2ccc(CNc3ccc(C(F)(F)F)cc3)cc2)CC1` [Example 31, (4-Butyl-piperazin-1-yl)-{4-{(4-trifluoromethyl-phenylamino)-methyl}-phenyl}-methanone], 0.63 µM.
On the same count and under the same terms, the same measure for `CCCCCCC(C)N1CCN(C(=O)c2ccc(CN3CCOCC3)cc2)CC1` (stereo not drawn) [Example 32, {4-(1-Methyl-heptyl)-piperazin-1-yl}-(4-morpholin-4-ylmethyl-phenyl)-methanone]: 0.13 µM; for `CCCCCCC(C)N1CCN(C(=O)c2ccc(CN3CCCCC3)cc2)CC1` (stereo not drawn) [Example 33, {4-(1-Methyl-heptyl)-piperazin-1-yl}-(4-piperidin-1-ylmethyl-phenyl)-methanone]: 0.052 µM; for `CC(C)N1CCN(C(=O)c2ccc(CNc3ccc(C(F)(F)F)cc3)cc2)CC1` [Example 34, (4-Isopropyl-piperazin-1-yl)-{4-{(4-trifluoromethyl-phenylamino)-methyl}-phenyl}-methanone]: 0.068 µM.
`CC(C)N1CCN(Cc2ccc(C(=O)N3CCN(C(C)C)CC3)cc2)CC1` [Example 35, (4-Isopropyl-piperazin-1-yl)-{4-(4-isopropyl-piperazin-1-ylmethyl)-phenyl}-methanone]: the inhibitory constant (Ki) (membranes of histamine H3 receptor-expressing SK-N-MC cells, 0.8 nM {3H}-N-methylhistamine, 45 min at 25° C., […]) is 0.018 µM.
`CCCCN1CCN(C(=O)c2ccc(CN3CCCC(C(F)(F)F)C3)cc2)CC1` (stereo not drawn) [Example 36, (4-Butyl-piperazin-1-yl)-{4-(3-trifluoromethyl-piperidin-1-ylmethyl)-phenyl}-methanone] registered an inhibition constant (Ki) of 0.012 µM.
`CCCCN1CCN(C(=O)c2ccc(CN3CCOCC3)cc2)CC1` [Example 37, (4-Butyl-piperazin-1-yl)-(4-morpholin-4-ylmethyl-phenyl)-methanone] came in with a Ki of 0.009 µM. This Ki and that of the molecule before are within 1.5-fold of each other.
On the same count and under the same terms, the same measure for `CC(C)N1CCN(C(=O)c2cccc(CN3CCOCC3)c2)CC1` [Example 38, (4-Isopropyl-piperazin-1-yl)-(3-morpholin-4-ylmethyl-phenyl)-methanone]: 0.18 µM; for `CC(C)N1CCN(C(=O)c2cccc(CN3CCCCC3)c2)CC1` [Example 39, (4-Isopropyl-piperazin-1-yl)-(3-piperidin-1-ylmethyl-phenyl)-methanone]: 0.035 µM; for `CC(C)N1CCN(C(=O)c2ccc(CN3CCOCC3)cc2)CC1` [Example 40]: 0.003 µM.
As to `CN1CCN(C(=O)c2cccc(CN3CCC(Cc4ccccc4)CC3)c2)CC1` [Example 42, {3-(4-Benzyl-piperidin-1-ylmethyl)-phenyl}-(4-methyl-piperazin-1-yl)-methanone], the inhibition constant (Ki) was determined as 0.8 µM. This Ki is about 270-fold higher than that of the molecule before.
On the same count and under the same terms, the same measure for `CN1CCN(C(=O)c2ccc(CN3CCOCC3)cc2)CC1` [Example 43, (4-Methyl-piperazin-1-yl)-(4-morpholin-4-ylmethyl-phenyl)-methanone dihydrochloride]: 0.022 µM; for `CC(C)N1CCN(C(=O)c2ccc(CNc3cc(C(F)(F)F)ccn3)cc2)CC1` [Example 44, (4-Isopropyl-piperazin-1-yl)-{4-{4-trifluoromethyl-pyridin-2-ylamino)-methyl}-phenyl}-methanone dihydrochloride]: 0.085 µM.
Still for that read-out and setting: the same measure for `CCC(CC)N1CCN(C(=O)c2ccc(CNc3ccccc3)cc2)CC1` [Example 45, {4-(1-Ethyl-propyl)-piperazin-1-yl}-(4-phenylaminomethyl-phenyl)-methanone dihydrochloride]: 0.054 µM; for `CCC(CC)N1CCN(C(=O)c2ccc(CN(C)C)cc2)CC1` [Example 46, (4-Dimethylaminomethyl-phenyl)-{4-(1-ethyl-propyl)-piperazin-1-yl}-methanone dihydrochloride]: 0.002 µM; for `CCC(CC)N1CCN(C(=O)c2ccc(CNc3ccc(C(F)(F)F)cc3)cc2)CC1` [Example 47, {4-(1-Ethyl-propyl)-piperazin-1-yl}-{-{4-{(4-trifluoromethyl-phenylamino)-methyl}-phenyl}-methanone dihydrochloride]: 0.081 µM.
`CCC(CC)N1CCN(C(=O)c2ccc(CN3CCOCC3)cc2)CC1` [Example 48, {4-(1-Ethyl-propyl)-piperazin-1-yl}-(4-morpholin-4-ylmethyl-phenyl)-methanone dihydrochloride] returned an inhibition constant Ki of 0.001 µM.
As for `CCC(CC)N1CCN(C(=O)c2ccc(CN3CCCC(C(F)(F)F)C3)cc2)CC1` (stereo not drawn) [Example 49, {4-(1-Ethyl-propyl)-piperazin-1-yl}-{4-(3-trifluoromethyl-piperidin-1-ylmethyl)-phenyl}-methanone dihydrochloride], affinity was put at a Ki of 0.004 µM.
As for `CCC(C)N1CCN(C(=O)c2ccc(CN3CCCC(C(F)(F)F)C3)cc2)CC1` (stereo not drawn) [Example 50, (4-sec-Butyl-piperazin-1-yl)-{4-(3-trifluoromethyl-piperidin-1-ylmethyl)-phenyl}-methanone dihydrochloride], the Ki was determined as 0.03 µM.

For the origin of these results see patent publication US7414047B2, “Piperazinyl and diazapanyl benzamides and benzthioamides” (Janssen Pharmaceutica N.V., priority 2002, dated 2008).
